Experiments:
[1] = target: T1, human A2a adenosine receptor (Homo sapiens, UniProt P29274); experiment: A2a binding affinity using radioligand binding, Method (A); settings: Method (A): [3H]SCH58261 filtration binding, membranes expressing human A2a
T1 construct: purchased Perkin Elmer RBHA2aM400UA; host or cells: HEK293 or CHO cells (recombinant expression)
From the text: (§1) Method (A) describes the procedure used to measure A2a binding affinity using radioligand binding. Method (B) describes the procedure used to measure A2a binding affinity using SPA technology. The method used to measure A2b binding affinity is also described below. The method used to determine the A2a IC50 value reported for each compound in the table is indicated next to the reported value. The A2b IC50 value measured using the A2b binding affinity assay is shown in the table next to the compound under the corresponding A2a value.
The A2a receptor affinity binding assay measured the amount of binding of a tritiated ligand with high affinity for the A2a adenosine receptor to membranes made from HEK293 or CHO cells recombinantly expressing the human A2a adenosine receptor, in the presence of varying concentrations of a compound of the invention. The data were generated using either filtration binding or a homogenous scintillation proximity assay (SPA).
Method (A): Measurement of A2a Binding Affinity Using Radioligand Binding
148 μL (5 μg/mL) membranes (Perkin Elmer, Cat. No. RBHA2aM400UA) and 2 μL compounds of the invention to be tested (test compound) were transferred to individual wells of a 96-well polypropylene assay plate and incubated for 15 to 30 minutes at room temperature. [^3H] SCH58261 ((7-(2-phenylethyl)-5-amino-2-(2-furyl)-pyrazolo-[4,3-e]-1,2,4-triazolo[1,5-c]pyrimidine)) was diluted in assay buffer (50 mM Tris pH 7.4, 10 mM MgCl2, 0.005% Tween20) to a concentration of 4 nM and 50 μL transferred to each well of the assay plate. To define total and non-specific binding, wells containing 1% DMSO and 1 μM ZM241385 (Tocris Bioscience, Cat. No. 1036) respectively, were also included. The assay plate was incubated at room temperature for 60 minutes with agitation. Using a FilterMate Harvester® (Perkin Elmer), the contents of the assay plate were filtered through a UniFilter-96® PEI coated plate (Perkin Elmer Cat. No. 6005274 or 6005277). Filtering was achieved by aspirating the contents of the assay plate for 5 seconds, then washing and aspirating the contents three times with ice-cooled wash buffer (50 mM Tris-HCl pH 7.4, 150 mM NaCl) and allowing the vacuum manifold to dry the plate for 30 seconds. The filter plate was incubated for at least 1 hour at 55° C. and allowed to dry. The bottom of the filter plate was sealed with backing tape. 40 μL Ultima Gold™ (Perkin Elmer, Cat. No. 6013329) was added to each well of the filter plate and the top of the plate was sealed with TopSeal-A PLUS® clear plate seal (Perkin Elmer, Cat. No. 6050185). The plate was incubated for at least 20 minutes, and then the amount of radioactivity remaining in each well was determined using a TopCount® (Perkin Elmer) scintillation counter. After normalization to total and non-specific binding, the percent effect at each compound concentration was calculated. The plot of percent effect versus the log of compound concentration was analyzed electronically using a 4-parameter logistic fit based on the Levenberg-Marquardt algorithm to generate IC50 values.

[2] = target: T2, human A2b adenosine receptor (Homo sapiens, UniProt P29275); experiment: A2b binding affinity, radioligand filtration binding assay; settings: tritiated proprietary A2b antagonist, HEK293 membranes expressing human A2b
T2 construct: purchased Perkin Elmer ES-013-C; host or cells: HEK293 cells recombinantly expressing the receptor; membranes made from them
T2 sequence (P29275 1-332): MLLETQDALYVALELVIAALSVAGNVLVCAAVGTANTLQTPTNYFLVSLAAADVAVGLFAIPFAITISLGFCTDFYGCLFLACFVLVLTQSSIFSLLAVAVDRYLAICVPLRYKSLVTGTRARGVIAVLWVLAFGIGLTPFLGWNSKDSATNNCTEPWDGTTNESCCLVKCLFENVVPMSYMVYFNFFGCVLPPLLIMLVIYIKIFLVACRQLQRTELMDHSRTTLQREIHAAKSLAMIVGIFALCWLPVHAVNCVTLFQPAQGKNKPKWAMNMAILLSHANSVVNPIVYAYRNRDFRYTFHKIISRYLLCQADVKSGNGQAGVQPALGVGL
From the text: as §1
Measurement of A2b Binding Affinity
The reported affinity of the compounds of the invention for the human A2b adenosine receptor was determined experimentally using a radioligand filtration binding assay. This assay measures the amount of binding of a tritiated proprietary A2b receptor antagonist, in the presence and absence of a compound of the invention, to membranes made from HEK293 cells recombinantly expressing the human A2b adenosine receptor (Perkin Elmer, Cat. No. ES-013-C).
148 μL (135 μg/mL) membranes and 2 μL test compounds were transferred to individual wells of a 96-well polypropylene assay plate and incubated for 15 to 30 minutes at room temperature with agitation. Tritiated radioligand was diluted to a concentration of 14 nM in assay buffer (phosphate buffered saline without Magnesium and Calcium, pH 7.4; GE Healthcare Life Sciences, Cat. No. SH30256.01) and then 50 μL of the solution were transferred to each well of the assay plate. To define total and non-specific binding, wells containing 1% DMSO and 20 μM N-ethylcarboxamidoadenosine (Tocris Bioscience, Cat. No. 1691) respectively, were also included. The wells of the assay plate were incubated at room temperature for 60 minutes with agitation, then filtered using a FilterMate Harvester® (Perkin Elmer) or similar equipment through a UniFilter-96® PEI coated plate (Perkin Elmer Cat. No. 6005274 or 6005277). Filtering was achieved by aspirating the contents of the assay plate for 5 seconds, then washing and aspirating the contents three times with ice-cooled wash buffer (assay buffer supplemented with 0.0025% Brij58) and allowing the vacuum manifold to dry the plate for 30 seconds. The filter plate was incubated for at least 1 hour at 55° C. and allowed to dry. The bottom of the filter plate was then sealed with backing tape. 40 μL Ultima Gold™ (Perkin Elmer, Cat. No. 6013329) was added to each well of the filter plate and the top of the plate was sealed with TopSeal-A PLUS® clear plate seal (Perkin Elmer, Cat. No. 6050185). The plates were then incubated for at least 20 minutes, and then the amount of radioactivity remaining in each well was determined using a TopCount® (Perkin Elmer) scintillation counter. After normalization to total and non-specific binding, the percent effect at each compound concentration was calculated. The plot of percent effect versus the log of compound concentration was analyzed electronically using a 4-parameter logistic fit based on the Levenberg-Marquardt algorithm to generate IC50 values.

T1 sequence (P29274 whole entry): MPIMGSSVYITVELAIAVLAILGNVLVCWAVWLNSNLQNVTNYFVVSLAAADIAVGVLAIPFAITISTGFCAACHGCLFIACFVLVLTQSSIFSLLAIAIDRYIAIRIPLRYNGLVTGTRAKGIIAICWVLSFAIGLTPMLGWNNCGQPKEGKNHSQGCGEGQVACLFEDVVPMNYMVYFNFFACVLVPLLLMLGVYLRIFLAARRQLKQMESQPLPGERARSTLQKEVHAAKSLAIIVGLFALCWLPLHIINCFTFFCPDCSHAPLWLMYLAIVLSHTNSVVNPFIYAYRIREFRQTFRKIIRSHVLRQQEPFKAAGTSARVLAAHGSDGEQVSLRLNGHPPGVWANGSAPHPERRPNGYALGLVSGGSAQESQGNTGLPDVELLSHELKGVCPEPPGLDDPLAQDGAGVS

IC50 [1]	IC50 [2]	SMILES
0.227 µM	7.31 µM	Cc1c(-c2ncco2)nc(N)n2nc(C3CCCC(C)(O)C3)nc12 (single isomer, unassigned) [Example 8.2-2, (1-R or S,3-R or S)-3-(5-amino-8-methyl-7-(oxazol-2-yl)-[1,2,4]triazolo[1,5-c]pyrimidin-2-yl)-1-methylcyclohexan-1-ol]
0.0079 µM	5.56 µM	Cc1c(-c2ncco2)nc(N)n2nc(C3CCCC(C)(O)C3)nc12 (single isomer, unassigned) [Example 8.3-1, (1-R or S,3-R or S)-3-(5-amino-8-methyl-7-(oxazol-2-yl)-[1,2,4]triazolo[1,5-c]pyrimidin-2-yl)-1-methylcyclohexan-1-ol]
0.0009 µM	0.0645 µM	Cc1c(-c2ncco2)nc(N)n2nc(C3CCCC(C)(O)C3)nc12 (single isomer, unassigned) [Example 8.3-2, (1-R or S,3-R or S)-3-(5-amino-8-methyl-7-(oxazol-2-yl)-[1,2,4]triazolo[1,5-c]pyrimidin-2-yl)-1-methylcyclohexan-1-ol]
0.0067 µM	0.411 µM	Cc1c(-c2ncco2)nc(N)c2nc(C3CCCC(C)(O)C3)nn12 (single isomer, unassigned) [Example 8.4, (1R,3S and 1S,3R) or (1R,3R and 1S,3S)-3-(8-amino-5-methyl-6-(oxazol-2-yl)-[1,2,4]triazolo[1,5-a]pyrazin-2-yl)-1-methylcyclohexan-1-ol]
0.265 µM	9.14 µM	Cc1c(-c2ncco2)nc(N)c2nc(C3CCCC(C)(O)C3)nn12 (single isomer, unassigned) [Example 8.5, (1R,3S and 1S,3R) or (1R,3R and 1S,3S)-(8-amino-5-methyl-6-(oxazol-2-yl)-[1,2,4]triazolo[1,5-a]pyrazin-2-yl)-1-methylcyclohexan-1-ol]
0.0065 µM	0.142 µM	Cc1c(-c2ncco2)nc(N)c2nc(C3CCC(C)(O)C3)nn12 (single isomer, unassigned) [Example 8.6, (1R,3S and 1S,3R) or (1R,3R and 1S,3S)-(8-amino-5-methyl-6-(oxazol-2-yl)-[1,2,4]triazolo[1,5-a]pyrazin-2-yl)-1-methylcyclopentan-1-ol]
0.143 µM	2.59 µM	Cc1c(-c2ncco2)nc(N)c2nc(C3CCC(C)(O)C3)nn12 (single isomer, unassigned) [Example 8.7, (1R,3S and 1S,3R) or (1R,3R and 1S,3S)-3-(8-amino-5-methyl-6-(oxazol-2-yl)-[1,2,4]triazolo[1,5-a]pyrazin-2-yl)-1-methylcyclopentan-1-ol]
0.0705 µM	0.35 µM	Cc1c(-c2cccc(F)c2)nc(N)c2nc(C3CCC(C)(O)C3)nn12 (single isomer, unassigned) [Example 8.8, (1R,3S and 1S,3R) or (1R,3R and 1S,3S)-3-(8-amino-6-(3-fluorophenyl)-5-methyl-[1,2,4]triazolo[1,5-a]pyrazin-2-yl)-1-methylcyclopentan-1-ol]
0.357 µM	2.09 µM	Cc1c(-c2cccc(F)c2)nc(N)c2nc(C3CCC(C)(O)C3)nn12 (single isomer, unassigned) [Example 8.9, (1R,3S and 1S,3R) or (1R,3R and 1S,3S)-3-(8-amino-6-(3-fluorophenyl)-5-methyl-[1,2,4]triazolo[1,5-a]pyrazin-2-yl)-1-methylcyclopentan-1-ol]
0.175 µM	2.64 µM	Cc1c(-c2cccc(F)c2)nc(N)c2nc(C3CCCC(C)(O)C3)nn12 (single isomer, unassigned) [Example 8.10-1, (1R,3S or 1S,3R or 1R,3R or 1S,3S)-1-3-(8-amino-6-(3-fluorophenyl)-5-methyl-[1,2,4]triazolo[1,5-a]pyrazin-2-yl)-1-methylcyclohexan-1-ol]
0.363 µM	2.54 µM	Cc1c(-c2cccc(F)c2)nc(N)c2nc(C3CCCC(C)(O)C3)nn12 (single isomer, unassigned) [Example 8.10-2, (1R,3S or 1S,3R or 1R,3R or 1S,3S)-1-3-(8-amino-6-(3-fluorophenyl)-5-methyl-[1,2,4]triazolo[1,5-a]pyrazin-2-yl)-1-methylcyclohexan-1-ol]
0.132 µM	≥ 10 µM	Cc1c(-c2cccc(F)c2)nc(N)c2nc(C3CCCC(C)(O)C3)nn12 (single isomer, unassigned) [Example 8.11-1, (1R,3S or 1S,3R or 1R,3R or 1S,3S)-1-3-(8-amino-6-(3-fluorophenyl)-5-methyl-[1,2,4]triazolo[1,5-a]pyrazin-2-yl)-1-methylcyclohexan-1-ol]
0.0135 µM	0.238 µM	Cc1c(-c2cccc(F)c2)nc(N)c2nc(C3CCCC(C)(O)C3)nn12 (single isomer, unassigned) [Example 8.11-2, (1R,3S or 1S,3R or 1R,3R or 1S,3S)-1-3-(8-amino-6-(3-fluorophenyl)-5-methyl-[1,2,4]triazolo[1,5-a]pyrazin-2-yl)-1-methylcyclohexan-1-ol]
0.0205 µM	1.03 µM	Cc1c(-c2ncco2)nc(N)n2nc([C@@H]3CCCNC3)nc12 [Example 2.3, (R)-8-methyl-7-(oxazol-2-yl)-2-(piperidin-3-yl)-[1,2,4]triazolo[1,5-c]pyrimidin-5-amine]
0.0577 µM	0.873 µM	Cc1c(-c2cccc(F)c2)nc(N)n2nc([C@@H]3CCCNC3)nc12 [Example 2.4, (R)-7-(3-fluorophenyl)-8-methyl-2-(piperidin-3-yl)-[1,2,4]triazolo[1,5-c]pyrimidin-5-amine]
0.0564 µM	2.91 µM	Cc1c(-c2ncco2)nc(N)c2nc(C3(c4ncccc4F)CC3)nn12 [Example 2.7, 2-(1-(3-fluoropyridin-2-yl)cyclopropyl)-5-methyl-6-(oxazol-2-yl)-[1,2,4]triazolo[1,5-a]pyrazin-8-amine]
